In publication PMC12251482, “Floridoside Phosphotriester Derivatives: Synthesis and Inhibition of Human Neutrophils’ Oxidative Burst” (Molecules, 2025):

Tests used:
[1] = tested on: PMA-stimulated human neutrophils; assay: HOCl generation by PMA-stimulated neutrophils, oxidation of APF; format: cell-based; details: PMA 160 nM, mean ± SEM
Procedure: APF is a non-fluorescent derivative of fluorescein, which is oxidized by HOCl, ONOO^−, and HO^• [87], in a concentration-dependent manner. Its selectivity was tested using the myeloperoxidase (MPO) inhibitor, 4-aminobenzoic acid hydrazide (ABAH). The addition of ABAH to human neutrophils, stimulated with PMA, decreased the APF-dependent fluorescence signal to the level of the control assay, ruling out the involvement of HO^• and ONOO^− [88]. The previously established methodology for monitoring oxidative burst modulation was adapted. In a 96-well plate, neutrophils (2 × 10^6 cells/mL) were incubated in the dark at 37 °C for 5 min with APF (2 μM) and the tested compounds (10–100 μM) or DMSO (4%). Quercetin (0.3–5.0 μM) and DPI (0.01–10 μM) were used as controls. After incubation, PMA (160 nM) was added, and the fluorescence (excitation at 495 nm and emission at 528 nm) was measured in a microplate reader (Synergy HT, BIO-TEK Instruments, Inc., Winooski, VT, USA). Kinetic readings were initiated immediately after the addition of APF. Obtained values correspond to the slope measured between 5 and 15 min. Effects are expressed as the percentage inhibition of APF oxidation. The results obtained represent at least three independent experiments.
APF is a non-ﬂuorescent derivative of ﬂuorescein, which is oxidized by HOCl, [20] ONOO-, and HO• [21] in a concentration- dependent manner. Its selectivity was tested using the myeloperoxidase (MPO) inhibitor, 4-aminobenzoic acid hydrazide (ABAH). The addition of ABAH to human neutrophils, stimulated with PMA, decreased the APF-dependent ﬂuorescence signal to the level of the control assay, ruling out the involvement of HO• and ONOO− [22]. The previously established methodology for monitoring oxidative burst modulation was adapted. In a 96-well plate, neutrophils (2 x 10^6 cells/mL) were incubated in the dark at 37 °C for 5 minutes with APF (2 µM) and the tested compounds (10 - 100 µM) or DMSO (4%). Quercetin (0.3 - 5.0 µM) and DPI (0.01 - 10 µM) were used as positive and negative controls, respectively. After incubation, PMA (160 nM) was added, and the ﬂuorescence (excitation at 495 nm and emission at 528 nm) was measured in a microplate reader (Synergy HT, BIO-TEK Instruments, Inc., Winooski, VT, USA). Kinetic readings were initiated immediately after the addition of APF. Obtained values correspond to the slope measured between 5 and 15 minutes. Eﬀects are expressed as the percentage inhibition of APF oxidation. The obtained results represent at least three independent experiments. […]
(§1) GraphPad Prism 6 software was used to plot the inhibition percentage versus compound concentration curves, enabling the determination of the concentration required to achieve 50% inhibition (IC50). GraphPad Prism 6 software was also used to perform all statistical analyses.
(§2) […] was estimated by applying the one-way analysis (ANOVA), followed by the Bonferroni’s multiple comparisons test. In all cases, p-values < 0.05 were considered statistically signiﬁcant. The results are expressed as mean ± standard error of the mean (SEM).

[2] = tested on: PMA-stimulated human neutrophils; assay: H2O2 generation by PMA-stimulated neutrophils, oxidation of Amplex Red; format: cell-based; details: PMA 160 nM, mean ± SEM
Procedure: Amplex Red is a highly sensitive and chemically stable fluorescent probe for the extracellular detection of H2O2 [82]. The methodology used previously for monitoring the modulation of the oxidative burst was adapted. In a 96-well plate, neutrophils (2 × 10^6 cells/mL) were incubated in the dark at 37 °C for 5 min with Amplex Red (25 μM), horseradish peroxidase (0.25 U/mL), and the compounds under study (10–100 μM) or DMSO (4%). Quercetin (0.3–5.0 μM) and DPI (0.01–10 μM) were used as controls. After incubation, PMA (160 nM) was added, and the fluorescence (excitation at 530 nm and emission at 590 nm) was measured in a microplate reader (Synergy HT, BioTek Instruments, Inc., Winooski, VT, USA). Obtained values correspond to the slope measured between 5 and 10 min. Effects are expressed as the percentage inhibition of Amplex Red oxidation. The results obtained represent at least three independent experiments. […] 3.4.3 Oxidation of Amplex Red
Amplex Red is a highly sensitive and chemically stable ﬂuorescent probe for the extracellular detection of H2O2 [16]. The methodology used previously for monitoring the modulation of the oxidative burst was adapted.
In a 96-well plate, neutrophils (2 x 10^6 cells/mL) were incubated in the dark at 37 °C for 5 minutes with Amplex Red (25 µM), horseradish peroxidase (0.25 U/mL) , and the compounds under study (10 - 100 µM) or DMSO (4%). Quercetin (0.3 - 5.0 µM) and DPI (0.01 - 10 µM) were used as positive controls for inhibition. After incubation, PMA (160 nM) was added, and the ﬂuorescence (excitation at 530 nm and emission at 590 nm) was measured in a microplate reader (Synergy HT, BioTek Instruments, Inc., Winooski, VT, USA). Obtained values correspond to the slope measured between 5 and 10 minutes. Eﬀects are expressed as the percentage inhibition of Amplex Red oxidation. The obtained results represent at least three independent experiments.
as §1, §2

In the case of “3-Hydroxy-2-(galactopyranosyl)propyl dodecanoate [Compound 1e]”, the “APF: highest obtained % of inhibition” value ([1]; at 50 µM) is reported as <20% ^50µM and the “Amplex Red: highest obtained % of inhibition” value ([2]; at 50 µM) is reported as <20% ^50µM.

For “3-Hydroxy-2-galactopyranosylpropyl dioctyl phosphate [Compound 1b]”, the “APF: highest obtained % of inhibition” value ([1]; at 25 µM) was 29 ± 10% ^25µM and the “Amplex Red: highest obtained % of inhibition” value ([2]; at 25 µM) was <20% ^25µM.

`OCC(CO)OC1OC(CO)C(O)C(O)C1O` [Compound 1a, 2-O-D-(galactopyranosyl)glycerol] was tested, and the inhibition at 50 µM ([1]; Homo sapiens, Neutrophil, at 50 µM, read-out: APF: highest obtained % of inhibition) was 27 ± 6% and the inhibition at 50 µM ([2]; Homo sapiens, Neutrophil, at 50 µM, read-out: Amplex Red: highest obtained % of inhibition) was < 20%.

In the case of `CCCCCCCCCCCC(=O)OCC(CO)OC1OC(COP(=O)(OCCN)OCCN)C(O)C(O)C1O` (centres unmarked) [Compound 1h, 2-(6-(bis(2-Aminoethoxy))phosphoryl)galactopyranosyl-3-hydroxypropyl dodecanoate], the inhibition at 25 µM ([1]; Homo sapiens, Neutrophil, at 25 µM, read-out: APF: highest obtained % of inhibition) is reported as < 20% and the inhibition at 25 µM ([2]; Homo sapiens, Neutrophil, at 25 µM, read-out: Amplex Red: highest obtained % of inhibition) is reported as < 20%.
